Experimental data taken from patent US12558366B2, “Bacterial DNA gyrase inhibitors and methods of use thereof” (THE FLORIDA INTERNATIONAL UNIVERSITY BOARD OF TRUSTEES, priority 2021, dated 2026).
Converted amounts (≈) assume the structure as drawn. “Also recorded” adds a separate entry of the source.

Assays:
E. coli DNA gyrase [1] = target: T1, E. coli DNA gyrase (Escherichia coli, UniProt P0AES4+P0AES6); test: DNA gyrase mediated DNA cleavage assay; format: biochemical; conditions: plasmid pBR322
Protocol: 250 ng of supercoiled pBR322 plasmid were incubated with 50 nM of E. coli DNA gyrase in reactions containing 35 mM Tris-HCl, 24 mM KCl, 4 mM MgCl2, 2 mM DTT, 0.1 mg/mL BSA, 6.5% glycerol, and 1.75 mM ATP, in presence of 200 μM of compounds, at 37° C. for 15 min. Then, 0.2% (w/v) of SDS and 0.1 mg/mL proteinase K were added, and samples were incubated at 37° C. for 1 h. […] Samples were examined by electrophoresis in 1% w/v agarose gel containing 0.5 μg/mL ethidium bromide and photographed under UV light.

E. coli DNA gyrase [2] = target: T1, E. coli DNA gyrase; test: SDFQ HTS assay of E. coli DNA gyrase (1536-well); format: biochemical; conditions: read-out: inhibition activities against E. coli DNA gyrase
Protocol: SDFQ HITS primary assay using pAB1_FL905 was performed in 2 μL of (1×DNA gyrase buffer: 20 mM Tris-Acetate pH 7.9, 50 mM KAc, 10 mM MgCl2, 2 mM DTT, 1 mM ATP, 0.1 mg/ml. BSA). […] 3) Spun plate at 800 rpm for 30 seconds. […] SDFQ HTS secondary assay using pAB1_FL924 was performed in 2 μL of (1×DNA gyrase buffer: 20 mM Tris-Acetate pHI 7.9, 50 mM KAc, 10 mM MgCl2, 2 mM DTT, 1 mM ATP, 0.1 mg/mL BSA). […] 3) Spun plate at 800 rpm for 30 seconds.

E. coli DNA gyrase [3] = target: T1, E. coli DNA gyrase; test: E. coli DNA gyrase inhibition (agarose gel-based and/or SDFQ-based, not specified per value); format: biochemical; conditions: Table 2 values; read-out: IC50 ( ≤15 μM) IC50
E. coli imp = test: microbe, parasite or virus in culture; format: cell-based; conditions: Escherichia coli, read-out: Minimum Inhibitory Concentration E. coli imp
Protocol: (§1) Antibacterial minimum inhibitory concentrations (MICs) were obtained from three independent experiments using broth microdilution methods in 96-well plates according to Clinical and Laboratory Standards Institute guidelines. Cells were culture from singles colonies in MHIIB medium for 24 h at 37° C. in agitation (200 RPM). The cultures were then diluted using the same media to reach an OD600 of 0.1. Then, 50 μL of the diluted cultures were added to the plates holding 50 μL of serially diluted compounds in MHIIB. The plates were incubated at 37° C. for 20 h. The starting inoculum was fixated to 10^5 colony-forming units per ml.

[4] = target: human DNA topoisomerase 2α (Homo sapiens, UniProt P11388); test: Human DNA topoisomerase 2α-mediated DNA cleavage assays; format: biochemical; conditions: plasmid pBR322
S. aureus (ATCC 14775) = test: Minimum inhibitory concentration, S. aureus; format: cell-based
Protocol: as §1

MRSA (ATCC BAA44) = test: microbe, parasite or virus in culture; format: cell-based, S. aureus
Protocol: as §1

E. coli (ATCC 25922) = test: Minimum inhibitory concentration, E. coli; format: cell-based
Protocol: as §1

Mtb DNA gyrase = Mtb DNA gyrase (Mycobacterium tuberculosis, UniProt P9WG45+P9WG47); test: Mtb DNA gyrase inhibition; format: biochemical
E. coli DNA gyrase [5] = target: T1, E. coli DNA gyrase; test: E. coli DNA gyrase ATPase assays; format: biochemical
Protocol: E. coli DNA gyrase ATPase assays were performed in 60 μl, of 1×gyrase ATPase buffer (10 mM Tris.HCl (pH 7.5), 0.2 mM EDTA, 1 mM magnesium chloride, 1 mM DTT, and 2% (w/v) glycerol) containing 50 nM E. coli DNA gyrase, 200 ng rx pAB1, 0.8 mM Phosphoenol pyruvate, 1.2 units of Pyruvate kinase, 1.7 units of lactate dehydrogenase, and 0.4 mM of NADH at 37° C. After the reaction mixtures are incubated on ice for 5 minutes, 2 mM of ATP is added to initiate the reaction. Absorbance at OD340 nm is monitored for up to 30 minutes at 37° C. in a spectrophotometer.

B. subtilis (ATCC 6633) = test: Minimum inhibitory concentration, B. subtilis; format: cell-based
Protocol: as §1

T1 sequence (P0AES4 whole entry, one chain of several): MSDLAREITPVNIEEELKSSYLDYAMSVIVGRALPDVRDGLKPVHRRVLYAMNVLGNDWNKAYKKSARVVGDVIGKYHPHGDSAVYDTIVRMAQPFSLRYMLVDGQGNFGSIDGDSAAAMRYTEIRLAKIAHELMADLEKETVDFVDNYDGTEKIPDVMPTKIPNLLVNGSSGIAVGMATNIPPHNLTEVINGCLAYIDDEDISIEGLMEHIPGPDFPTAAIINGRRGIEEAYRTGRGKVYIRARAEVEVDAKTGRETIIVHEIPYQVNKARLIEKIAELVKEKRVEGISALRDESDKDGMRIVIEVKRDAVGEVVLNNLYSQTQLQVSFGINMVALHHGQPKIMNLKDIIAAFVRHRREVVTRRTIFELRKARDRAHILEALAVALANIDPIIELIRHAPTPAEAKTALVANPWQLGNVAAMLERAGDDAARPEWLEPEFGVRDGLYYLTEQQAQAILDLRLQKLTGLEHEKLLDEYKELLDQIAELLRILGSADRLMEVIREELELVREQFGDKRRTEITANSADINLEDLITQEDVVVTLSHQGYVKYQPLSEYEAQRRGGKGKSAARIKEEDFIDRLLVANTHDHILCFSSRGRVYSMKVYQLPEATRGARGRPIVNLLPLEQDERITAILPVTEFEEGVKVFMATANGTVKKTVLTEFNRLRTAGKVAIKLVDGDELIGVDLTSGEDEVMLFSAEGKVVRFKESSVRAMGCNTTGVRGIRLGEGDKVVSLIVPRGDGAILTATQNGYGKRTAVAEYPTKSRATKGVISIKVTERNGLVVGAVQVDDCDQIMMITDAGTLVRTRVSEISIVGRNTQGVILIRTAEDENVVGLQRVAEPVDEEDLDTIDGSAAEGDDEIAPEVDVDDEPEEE
human DNA topoisomerase 2α, sequence (P11388 whole entry): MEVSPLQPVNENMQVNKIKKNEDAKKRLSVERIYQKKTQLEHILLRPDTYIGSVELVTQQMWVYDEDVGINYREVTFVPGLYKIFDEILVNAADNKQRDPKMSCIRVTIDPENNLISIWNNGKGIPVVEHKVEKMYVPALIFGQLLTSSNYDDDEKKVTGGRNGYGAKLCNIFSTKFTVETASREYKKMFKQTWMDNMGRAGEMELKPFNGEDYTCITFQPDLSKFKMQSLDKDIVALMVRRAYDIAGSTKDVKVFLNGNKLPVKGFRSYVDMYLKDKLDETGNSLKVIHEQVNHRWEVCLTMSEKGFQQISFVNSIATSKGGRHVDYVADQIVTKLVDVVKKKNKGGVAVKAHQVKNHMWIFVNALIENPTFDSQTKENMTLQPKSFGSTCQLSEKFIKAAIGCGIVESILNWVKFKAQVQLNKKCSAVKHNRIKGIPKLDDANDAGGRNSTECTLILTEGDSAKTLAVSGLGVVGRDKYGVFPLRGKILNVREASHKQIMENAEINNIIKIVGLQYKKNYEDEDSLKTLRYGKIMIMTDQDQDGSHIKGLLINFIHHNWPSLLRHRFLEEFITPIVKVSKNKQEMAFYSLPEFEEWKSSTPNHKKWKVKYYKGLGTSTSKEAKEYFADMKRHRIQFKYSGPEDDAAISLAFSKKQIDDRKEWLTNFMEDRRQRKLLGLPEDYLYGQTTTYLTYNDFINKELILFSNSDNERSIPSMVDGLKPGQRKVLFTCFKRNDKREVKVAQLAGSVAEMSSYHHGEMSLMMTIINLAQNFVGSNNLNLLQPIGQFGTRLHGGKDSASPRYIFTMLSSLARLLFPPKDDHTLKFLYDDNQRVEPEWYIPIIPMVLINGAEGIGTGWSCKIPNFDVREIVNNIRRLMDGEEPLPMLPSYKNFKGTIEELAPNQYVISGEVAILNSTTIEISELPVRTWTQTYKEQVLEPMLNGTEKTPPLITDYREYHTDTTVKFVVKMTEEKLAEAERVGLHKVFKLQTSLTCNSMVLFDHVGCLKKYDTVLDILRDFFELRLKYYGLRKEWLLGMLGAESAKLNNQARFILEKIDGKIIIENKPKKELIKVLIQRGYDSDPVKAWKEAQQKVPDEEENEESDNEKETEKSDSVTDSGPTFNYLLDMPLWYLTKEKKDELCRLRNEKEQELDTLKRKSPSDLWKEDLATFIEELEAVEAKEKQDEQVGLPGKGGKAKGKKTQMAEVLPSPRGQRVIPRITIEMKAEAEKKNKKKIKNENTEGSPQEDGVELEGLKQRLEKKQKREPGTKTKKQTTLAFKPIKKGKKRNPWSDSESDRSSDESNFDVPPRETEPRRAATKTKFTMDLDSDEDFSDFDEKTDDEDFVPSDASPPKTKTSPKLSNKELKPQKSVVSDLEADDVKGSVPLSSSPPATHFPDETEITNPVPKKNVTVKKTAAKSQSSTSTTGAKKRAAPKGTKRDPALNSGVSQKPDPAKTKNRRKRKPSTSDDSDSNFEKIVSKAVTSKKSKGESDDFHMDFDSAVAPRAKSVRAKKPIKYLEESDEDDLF
Mtb DNA gyrase, sequence (P9WG45 whole entry): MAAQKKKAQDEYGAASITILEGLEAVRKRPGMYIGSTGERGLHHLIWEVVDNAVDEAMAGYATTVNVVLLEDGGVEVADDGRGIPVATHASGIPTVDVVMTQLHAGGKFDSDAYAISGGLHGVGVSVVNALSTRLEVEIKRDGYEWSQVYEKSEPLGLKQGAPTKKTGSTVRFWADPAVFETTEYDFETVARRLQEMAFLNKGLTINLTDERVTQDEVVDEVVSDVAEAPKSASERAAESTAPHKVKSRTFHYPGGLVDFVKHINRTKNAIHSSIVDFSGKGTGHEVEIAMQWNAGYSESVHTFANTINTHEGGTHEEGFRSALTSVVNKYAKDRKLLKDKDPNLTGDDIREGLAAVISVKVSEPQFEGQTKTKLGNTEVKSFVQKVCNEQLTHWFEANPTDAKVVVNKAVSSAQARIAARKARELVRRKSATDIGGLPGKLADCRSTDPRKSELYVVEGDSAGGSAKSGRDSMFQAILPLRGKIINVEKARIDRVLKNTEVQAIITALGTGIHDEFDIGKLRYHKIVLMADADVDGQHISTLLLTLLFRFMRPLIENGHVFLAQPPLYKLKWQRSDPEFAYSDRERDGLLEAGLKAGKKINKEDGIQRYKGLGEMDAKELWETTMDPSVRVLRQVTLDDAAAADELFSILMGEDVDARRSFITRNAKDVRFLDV
Mtb DNA gyrase, sequence (P9WG47 whole entry): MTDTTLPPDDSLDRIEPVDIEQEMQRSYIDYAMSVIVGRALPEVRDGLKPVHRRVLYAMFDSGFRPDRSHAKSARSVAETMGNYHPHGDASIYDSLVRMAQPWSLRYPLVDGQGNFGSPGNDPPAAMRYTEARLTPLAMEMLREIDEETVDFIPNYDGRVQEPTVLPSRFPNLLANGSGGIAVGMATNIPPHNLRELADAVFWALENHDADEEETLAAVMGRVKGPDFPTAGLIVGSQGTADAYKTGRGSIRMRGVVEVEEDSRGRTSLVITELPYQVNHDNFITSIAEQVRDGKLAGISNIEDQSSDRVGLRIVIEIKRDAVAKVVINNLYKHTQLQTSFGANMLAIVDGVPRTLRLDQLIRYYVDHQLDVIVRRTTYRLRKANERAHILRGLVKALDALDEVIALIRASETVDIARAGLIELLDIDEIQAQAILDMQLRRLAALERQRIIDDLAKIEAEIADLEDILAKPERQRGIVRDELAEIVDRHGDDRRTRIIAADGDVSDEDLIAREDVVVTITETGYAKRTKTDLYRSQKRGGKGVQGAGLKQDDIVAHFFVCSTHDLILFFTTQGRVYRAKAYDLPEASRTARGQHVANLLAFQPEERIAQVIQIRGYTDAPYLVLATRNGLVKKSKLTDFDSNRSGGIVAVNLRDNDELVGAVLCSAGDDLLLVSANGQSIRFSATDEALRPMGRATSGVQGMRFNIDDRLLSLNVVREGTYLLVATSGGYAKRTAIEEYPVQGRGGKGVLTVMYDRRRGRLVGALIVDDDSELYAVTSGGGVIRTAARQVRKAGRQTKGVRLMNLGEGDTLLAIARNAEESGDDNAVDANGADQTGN

O=C1C=C(NCCc2cc(Br)c(O)c(Br)c2)C(=O)c2ncccc21 [Compound 232, 7-((2-(3,5-Dibromo-4-hydroxyphenyl)ethyl)amino)-5,8-quinolinedione]
DNA gyrase-mediated double stranded DNA breaks / DNA nicking (E. coli DNA gyrase [1]): cause DNA nicking

CCn1cc(C(=O)O)c(=O)c2cc(F)c(N3CCNC(C)C3)c(F)c21 (centres unmarked) [lomefloxacin]
inhibition at 5 µM (E. coli DNA gyrase [2]): > 40%

N[C@@H]1[C@H]2CN(c3nc4c(cc3F)c(=O)c(C(=O)O)cn4-c3ccc(F)cc3F)C[C@@H]12 [trovafloxacin]
inhibition at 5 µM (E. coli DNA gyrase [2]): > 40%

N=C(N)Nc1nc(-c2ccccc2)c2cc(Cl)ccc2n1 [Compound 154, N-(6-chloro-4-phenylquinazolin-2-yl)guanidine]
IC50 (E. coli DNA gyrase [3]): 3.12 µM
DNA gyrase-mediated double stranded DNA breaks / DNA nicking (E. coli DNA gyrase [1]): causes the gyrase-mediated DNA double-stranded breaks and single-stranded nicks; also recorded: bacterial DNA gyrase poison
MIC (E. coli imp): 50 to 100 µM (≈ 14.9 to 29.8 µg/mL)
human topoisomerase 2α-mediated DNA nicks and double-stranded breaks [4]: causes the human topoisomerase 2α-mediated DNA nicks and double-stranded breaks
growth inhibition of S. aureus (S. aureus (ATCC 14775)): significant antibacterial activities
growth inhibition of MRSA (MRSA (ATCC BAA44)): significant antibacterial activities
antibacterial activities against E. coli (E. coli (ATCC 25922); wildtype strain ATCC 25922): significant antibacterial activities

Cc1cc(O)c2c(c1)C(=O)c1cc(O)cc(O)c1C2=O [Compound 242, Emodin]
inhibition at 5 µM (E. coli DNA gyrase [2]): > 40%

CNC(=O)[C@H]1O[C@@H](n2cnc3c(NCc4cccc(I)c4)nc(Cl)nc32)[C@H](O)[C@@H]1O [chloro-IB-MECA, reference compound]
DNA gyrase-mediated double stranded DNA breaks / DNA nicking (E. coli DNA gyrase [1]): did not DNA double stranded DNA 10 breaks
inhibition of Mtb DNA gyrase activities (Mtb DNA gyrase): did not inhibit
inhibition of the ATPase activities of E. coli DNA gyrase (E. coli DNA gyrase [5]): inhibition of the ATPase activities
mode of inhibition (ATP competitive) (E. coli DNA gyrase [5]): ATP competitive inhibitors

CC(OC(=O)c1cc(O)c2ccccc2c1O)C(=O)Nc1ccc(C(N)=O)cc1 (centres unmarked) [Compound 40, 1-[(4-carbamoylphenyl)carbamoyl]ethyl 1,4-dihydroxynaphthalene-2-carboxylate]
DNA gyrase-mediated double stranded DNA breaks / DNA nicking (E. coli DNA gyrase [1]): causes DNA gyrase-mediated double stranded DNA breaks and DNA nicking; also recorded: causes gyrase-mediated DNA double-stranded breaks and single-stranded nicks; also recorded: bacterial DNA gyrase poison
MIC (E. coli imp): > 200 µM
anti Bacillus subtilis activities at (B. subtilis (ATCC 6633)): 39 µg/mL
MIC (S. aureus (ATCC 14775); Staphylococcus aureus, ATCC14775, Tables 3a-3c, read-out: Minimum Inhibitory Concentration S. aureus): > 200 µM
MIC (MRSA (ATCC BAA44); Staphylococcus aureus, read-out: Minimum Inhibitory Concentration S. aureus MRSA): > 200 µM
MIC (E. coli (ATCC 25922); Escherichia coli, ATCC25922, read-out: Minimum Inhibitory Concentration E. coli): > 200 µM

O=C(O)CCNc1ccc(NCCC(=O)O)c2c1C(=O)c1ccccc1C2=O [Compound 173, 3-({4-[(2-carboxyethyl)amino]-9,10-dioxo-9,10-dihydroanthracen-1-yl}amino)propanoic acid]
DNA gyrase-mediated double stranded DNA breaks / DNA nicking (E. coli DNA gyrase [1]): cause DNA nicking

Cc1ccc(C(=O)Nc2ccc(S(=O)(=O)O)c3cc(S(=O)(=O)O)cc(S(=O)(=O)O)c23)cc1NC(=O)c1cccc(NC(=O)Nc2cccc(C(=O)Nc3cc(C(=O)Nc4ccc(S(=O)(=O)O)c5cc(S(=O)(=O)O)cc(S(=O)(=O)O)c45)ccc3C)c2)c1 [suramin]
inhibition at 5 µM (E. coli DNA gyrase [2]): > 40%
